From EP2949653A1, “ISOXAZOLE DERIVATIVES AS LEUKOTRIENE BIOSYNTHESIS INHIBITORS” (Banoglu, Erden, priority 2014, dated 2015)
“And” between values parts separate entries of the source, which are not always exact repeats. Equal entries are not always repeated. Where two headings read alike, the source gives them in different places.

Assays:
[1] = system: 5-LO mediated product formation; experiment: 5-LO mediated product formation in intact neutrophils stimulated with A23187 (cell-based); set-up: species or system human; details: for IC50: Neutrophil
Method: (§1) Cell based and cell-free assays carried out in biological studies, immunofluorescence microscopy analysis and zymosan-induced peritonitis in mice are performed as described hereinabove (Pegola, C. and et al., British J. Pharmacology, 2014, D01:10.1111/bph.12625). In the cell based assays (intact neutrophils or monocytes), 5-LO mediated product formation is started, after pre-incubation with test compounds (or control DMSO) for 15 min. at 37 °C, with addition of Ca-ionophore A23187 (2.5 µM) to the fresh 5 x 10^6 neutrophils or monocytes suspended in 1 ml of PGC buffer (phosphate buffered saline (PBS) solution containing 1 mg ml^-1 glucose and 1mM CaCl2, pH 7.4). After the incubation for 10 min. at 37 °C, the reaction is ended with addition of 1 ml of methanol, and 30 µL 1 N HCl, 200 ng prostaglandin B1 and 500 µL PBS are added to the mixture. In cell-free assays (isolated 5-LO and cell homogenates), human recombinant 5-LO protein or 40,000g supernatant is added to 1 ml of 5-LO reaction mixture (PBS, pH 7.4, 1 mM EDTA, 1 mM ATP), and then incubated with test compounds (or control DMSO) for 10 min. at 4°C, heated to 37 °C and 2 mM CaCl2 as well as AA at certain concentrations are added. The reaction is ended as described for the cell-based assays. Resulting 5-LO mediated products are extracted and analysed by the known method of high pressure liquid chromatography (HPLC) (Pergola, C. Proc Natl. Acad. Sci. U.S.A. 2008, 105, 19881). 5-LO mediated product formation (LTB4 and all trans isomers, and 5 (S)-hydro(pero)xy-6-trans-8, 11, 14-cis-eicosatetraenoic acid, 5-H(p)ETE) is expressed as ng per 10^6 cell. Cysteinyl-LTs have not been analyzed because that the amount of C4, D4 and E4 and LTB4 oxidation products are below the detection limit.
(§2) Compounds were tested in intact human neutrophils stimulated with 2.5 µM A23187 under cell based conditions and on purified 5-LO under cell free conditions. ^aData are given as remaining activity as a percentage of control (100%) at 10 µM or 1 µM inhibitor concentrations (means ± SE, n = 3-6).
Compound 9hj inhibited 5-LO mediated product formation with IC50 of 60 nM in human neutrophils. Neutrophils are stimulated with Ca-ionophore A23187 (2.5 µM), without the addition of exogenous arachidonic acid (AA), after pre-incubation with 9hj or vehicle (0.1 % DMSO). 100% controls correspond to 275.7 ng mL^-1 of 5-LO mediated products (Figure 1).
100% controls correspond to 328.97 ng mL^-1 of 5-LO mediated products.

purified 5-LO = target: T1, purified 5-LO (Homo sapiens, UniProt P09917); experiment: Purified / human recombinant 5-LO activity (cell-free); type: biochemical
T1 sequence (P09917 1-674): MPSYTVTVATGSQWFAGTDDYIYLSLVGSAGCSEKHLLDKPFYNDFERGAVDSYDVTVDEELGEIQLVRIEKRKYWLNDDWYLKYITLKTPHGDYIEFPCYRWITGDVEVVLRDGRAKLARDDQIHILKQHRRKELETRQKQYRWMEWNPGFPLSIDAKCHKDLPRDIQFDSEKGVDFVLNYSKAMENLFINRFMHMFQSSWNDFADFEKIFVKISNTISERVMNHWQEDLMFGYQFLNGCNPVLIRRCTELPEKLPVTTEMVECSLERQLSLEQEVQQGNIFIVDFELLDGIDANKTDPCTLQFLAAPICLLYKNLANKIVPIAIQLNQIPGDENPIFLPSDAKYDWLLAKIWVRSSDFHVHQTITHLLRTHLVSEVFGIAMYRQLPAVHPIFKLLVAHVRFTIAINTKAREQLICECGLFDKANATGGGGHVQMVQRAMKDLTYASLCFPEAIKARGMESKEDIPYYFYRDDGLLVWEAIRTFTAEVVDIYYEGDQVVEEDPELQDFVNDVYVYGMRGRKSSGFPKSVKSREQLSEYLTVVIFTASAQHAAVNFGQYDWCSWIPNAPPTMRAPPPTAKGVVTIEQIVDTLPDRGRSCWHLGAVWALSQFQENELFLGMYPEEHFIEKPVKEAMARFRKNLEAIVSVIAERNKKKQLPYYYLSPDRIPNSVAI
Method: as §1, §2
9hj was added 15 min before addition of 2 mM Ca^2+ plus 3 µM, 10 µM and 30 µM AA. 100% controls correspond to 200.35 ng mL^-1 for 3 µM AA, 514.36 ng mL^-1 for 10 µM AA and 537.73 ng mL^-1 for 30 µM AA.

[2] = target: T2, microsomal prostaglandin E synthase-1 (mPGES-1) (Homo sapiens, UniProt O14684); experiment: mPGES-1 inhibition; type: biochemical
T2 sequence (O14684 1-152): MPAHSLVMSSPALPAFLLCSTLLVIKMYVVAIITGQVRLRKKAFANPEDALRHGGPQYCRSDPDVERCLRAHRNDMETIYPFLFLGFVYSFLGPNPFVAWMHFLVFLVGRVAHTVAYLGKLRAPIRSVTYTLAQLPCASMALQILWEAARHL
Method: Compound 9hj inhibited microsomal prostaglandin E synthase-1 (mPGES-1) with IC50 of 5 µM.

[3] = system: 5-LO mediated product formation; experiment: 5-LO mediated product formation in intact neutrophils stimulated with A23187 (cell-based); details: Homo sapiens, Neutrophil; A23187, in the presence of 20 µM to 80 µM exogenous arachidonic acid (Figure 2); read-out: IC50 5-LO mediated product formation in human neutrophils with exogenous AA

SMILES: O=C(O)c1noc(-c2ccc(OCc3ccc4ccccc4n3)cc2)c1-c1ccc(Cl)cc1 [Compound 9hj, 4-(4-Chlorophenyl)-5-(4-(quinolin-2-ylmethoxy)phenyl)isoxazole-3-carboxylic acid]
- IC50 ([1]; Homo sapiens, A23187 (2.5 µM), without exogenous AA, vehicle 0.1 % DMSO (Figure 1), read-out: IC50 5-LO mediated product formation in human neutrophils): 0.06 µM
- IC50 ([1]; intact human neutrophils stimulated with 2.5 µM A23187, mean ± SE, n = 3-4, read-out: Inhibition of purified 5-LO activity IC50 (µM) cell based): 0.24 µM
- activity at 1 µM ([1]; PMNL, remaining activity at 1 µM inhibitor, human neutrophils, 2.5 µM A23187, means ± SE, n = 3-6, read-out: 5-LO mediated product formation in intact neutrophils (PMNL) (% of control) at 1 µM): 12.1 ± 5.26%
- activity at 10 µM ([1]; PMNL, remaining activity at 10 µM inhibitor, human neutrophils, 2.5 µM A23187, means ± SE, n = 3-6, read-out: 5-LO mediated product formation in intact neutrophils (PMNL) (% of control) at 10 µM): 2.73 ± 1.41%
- IC50 (purified 5-LO; human recombinant 5-LO, at 3, 10 and 30 µM substrate AA (Figure 5), read-out: mean IC50 activity of isolated 5-LO): 2 µM
- IC50 (purified 5-LO; purified 5-LO under cell free conditions, mean ± SE, n = 3-4, read-out: Inhibition of purified 5-LO activity IC50 (µM) cell-free): 8 µM and 8.01 µM
- IC50 [2]: 5000 nM
- IC50 [3]: 170 to 350 nM
